The numbers were not newly measured in patent US20230022721A1, “COMPOSITIONS AND METHODS FOR INHIBITION AND INTERRUPTION OF BIOFILM FORMATION” (DENTSPLY SIRONA Inc., priority 2016, published 2023), which cites them from elsewhere.

Data set [1] concerns Bacteria: E. coli; S. aureus; S. typhimurium.
The subject of data set [2] is Bacteria: P. aeruginosa; Staphylococcus spp.
The subject of data set [3] is Bacteria: S. aureus; P. aeruginosa; E. coli.
In data set [4] the test system is Fungi: C. albicans; A. niger.
Data set [5] deals with Bacteria: Gram-positive bacteria. The note with it: vs model compound.

With `C=CC(=O)Oc1ccc(Cl)c2cccnc12`, the “Comparison of Polymers with Monomer” value in data set [1] is “The homopolymer and the copolymers with acrylamide are both less effective than the monomer.^[13]”. Regarding `C=CC(=O)Oc1cc(Cl)ccc1Oc1ccc(Cl)cc1Cl`, the “Comparison of Polymers with Monomer” value in data set [2] was “The homopolymer and copolymers with methyl methacrylate, styrene are all less effective than the monomer.^[10]”. As to `C=C(C)C(=O)OCC(O)CSc1nnc(C)s1` (centres unmarked), the “Comparison of Polymers with Monomer” value in data set [3] was “The homopolymer is more effective than the monomer.^[8]”. Consider `Cc1cc(NS(=O)(=O)c2ccc(N3C(=O)C=CC3=O)cc2)no1`, for which the “Comparison of Polymers with Monomer” value in data set [4] was “The homopolymer is more effective than the monomer at all concentrations.^[6]”. Consider `C=Cc1ccc(C[S+]2CCCC2)cc1`, for which the “Comparison of Polymers with Monomer” value in data set [5] is on record as “The homopolymer is more effective than the corresponding model compound (p- ethylbenzyl tetramethylene sulforium tetrafluoroborate)”.
